Where a name gives a salt, the structure may show the parent alone. Read-outs that look alike come from different tables or passages of the source.
Assays:
σ1R = conditions: cited from earlier work; for Ki: inhibition of radioligand (e.g. [3H]SKF-10,047) binding to σ1R
xlσ1R wild-type = biological target: T1, xlσ1R wild-type (Xenopus laevis, UniProt Q6DCU6); experiment: Microscale thermophoresis (MST) binding to xlσ1R wild-type
T1 construct: hemagglutinin signal peptide (N); made in house; host or cells: Pichia pastoris GS115
T1 sequence (Q6DCU6 1-221): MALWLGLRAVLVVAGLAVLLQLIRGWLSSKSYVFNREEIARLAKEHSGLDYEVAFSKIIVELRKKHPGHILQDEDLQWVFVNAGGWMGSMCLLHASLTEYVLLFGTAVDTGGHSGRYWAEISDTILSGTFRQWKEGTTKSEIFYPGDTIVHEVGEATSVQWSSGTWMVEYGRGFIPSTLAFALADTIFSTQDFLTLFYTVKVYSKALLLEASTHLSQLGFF

xlσ1R E169A = biological target: T2, xlσ1R E169A (Xenopus laevis, UniProt Q6DCU6, E169A); experiment: Microscale thermophoresis (MST) binding to xlσ1R E169A mutant
T2 construct: hemagglutinin signal peptide (N); made in house; host or cells: Pichia pastoris GS115
T2 sequence (Q6DCU6 1-221 E169A): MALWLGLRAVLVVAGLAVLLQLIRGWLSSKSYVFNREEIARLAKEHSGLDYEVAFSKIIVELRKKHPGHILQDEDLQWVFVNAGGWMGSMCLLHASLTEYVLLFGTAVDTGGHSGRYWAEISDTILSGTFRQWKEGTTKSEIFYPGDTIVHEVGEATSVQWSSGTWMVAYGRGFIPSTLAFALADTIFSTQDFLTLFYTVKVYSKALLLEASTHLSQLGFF

[1] = biological target: the molecule itself; experiment: crystal structure; sitting-drop vapour diffusion at 20 °C; 0.32 M LiCl, 0.1 M sodium citrate pH 5.5, 12% PEG 4000, 10% glycerol, 15 mM sodium cholate; protein in OG/CHS; no ligand added, or with 1 mM progesterone or 1 mM DHEAS; space groups I432 (trimer by crystal symmetry) and C2 (two trimers in the asymmetric unit)

## C[C@]12CC[C@H](O)CC1=CC[C@@H]1[C@@H]2CC[C@]2(C)C(=O)CC[C@@H]12 [DHEA, dehydroepiandrosterone]
σ1R
  Ki: micromolar range or more

## CC12CCC3C(CC=C4CC(OS(=O)(=O)O)CCC43C)C1CCC2=O (stereo not drawn) [DHEAS, dehydroepiandrosterone sulfate]
xlσ1R wild-type; read-out: Kd (mean), MST, wild-type xlσ1R, N = 3, mean (± SD)
  Kd: 18 ± 2.5 µM
xlσ1R wild-type; read-out: Kd Mean, Source Data sheet Supplementary Table 3, wild-type, mean of 3
  Kd: 18 µM
xlσ1R wild-type; read-out: Kd Repeat 1, Source Data sheet Supplementary Table 3, wild-type, repeat 1
  Kd: 17.2 µM
xlσ1R wild-type; read-out: Kd Repeat 2, Source Data sheet Supplementary Table 3, wild-type, repeat 2
  Kd: 15.9 µM
xlσ1R wild-type; read-out: Kd Repeat 3, Source Data sheet Supplementary Table 3, wild-type, repeat 3
  Kd: 20.8 µM
xlσ1R E169A; read-out: Kd (mean), MST, xlσ1R E169A, N = 3, mean (± SD)
  Kd: 456 ± 17 µM
xlσ1R E169A; read-out: Kd Mean, Source Data sheet Supplementary Table 3, E169A, mean of 3
  Kd: 456 µM
xlσ1R E169A; read-out: Kd Repeat 1, Source Data sheet Supplementary Table 3, E169A, repeat 1
  Kd: 471 µM
xlσ1R E169A; read-out: Kd Repeat 2, Source Data sheet Supplementary Table 3, E169A, repeat 2
  Kd: 438 µM
xlσ1R E169A; read-out: Kd Repeat 3, Source Data sheet Supplementary Table 3, E169A, repeat 3
  Kd: 460 µM
σ1R
  Ki: micromolar range or more

## CCCCCCCCO[C@@H]1O[C@H](CO)[C@@H](O)[C@H](O)[C@H]1O [OG, octyl-β-D-glucopyranoside]
xlσ1R wild-type; MST binding assay, xlσ1R, printed only in peer review file, OG data removed from final manuscript, read-out: Kd
  Kd: 8300 ± 2700 µM

## CC(=O)[C@H]1CC[C@H]2[C@@H]3CCC4=CC(=O)CC[C@]4(C)[C@H]3CC[C@]12C [progesterone]
xlσ1R wild-type; MST, wild-type xlσ1R, N = 3, mean (± SD), read-out: Kd (mean)
  Kd: 0.94 ± 0.22 µM
xlσ1R wild-type; Source Data sheet Supplementary Table 3, wild-type, repeat 1, read-out: Kd Repeat 1
  Kd: 0.71 µM
xlσ1R wild-type; Source Data sheet Supplementary Table 3, wild-type, repeat 2, read-out: Kd Repeat 2
  Kd: 0.96 µM
xlσ1R wild-type; Source Data sheet Supplementary Table 3, wild-type, repeat 3, read-out: Kd Repeat 3
  Kd: 1.14 µM
σ1R
  affinity for σ1R: in μM range
  Ki: submicromolar range

## pregnenolone sulfate
σ1R
  Ki: micromolar range or more

B1: sigma-1 receptor from Xenopus laevis (xlσ1R), wild type, purification tag removed (receptor)
chain: MALWLGLRAVLVVAGLAVLLQLIRGWLSSKSYVFNREEIARLAKEHSGLDYEVAFSKIIVELRKKHPGHILQDEDLQWVFVNAGGWMGSMCLLHASLTEYVLLFGTAVDTGGHSGRYWAEISDTILSGTFRQWKEGTTKSEIFYPGDTIVHEVGEATSVQWSSGTWMVEYGRGFIPSTLAFALADTIFSTQDFLTLFYTVKVYSKALLLEASTHLSQLGFF
notes: sigma-1 receptor, Xenopus laevis, NCBI NP_001087013.1, wild type; the simulation methods speak of residues 1-33 (transmembrane helix) and 34-219 of the crystal model; Cloned in a modified pPICZ plasmid after a hemagglutinin signal peptide, a decahistidine tag and a TEV protease site; the tag was removed by TEV protease before crystallisation; also called xlσ1R_(unknown-lig); xlσ1R_(prog-co); not …
[1]
  stoichiometry N: 3
